Data from patent US20230085307A1, “PYRIDAZINONE COMPOUND AND HERBICIDE” (NISSAN CHEMICAL CORPORATION, priority 2019, published 2023).

Key:
barnyard grass [1] = assay: Test Example 3: herbicidal effect by foliage application, Wagner pot (Table 18, symbol H); assay type: in vivo, barnyard grass (Echinochloa crus-galli); conditions: 320 g/ha
Method in brief: (§1)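 Plants were sown in alluvial soil held under 0.1–0.5 cm standing water and grown 14 days in a greenhouse at 25–30 °C. An emulsifiable formulation, water-diluted to the set dose, was then sprayed onto the foliage, and effects were scored three weeks later using previously defined criteria.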

Chinese sprangletop = assay: Test Example 3: herbicidal effect by foliage application, Wagner pot (Table 18, symbol D); assay type: in vivo, chinese sprangletop (Leptochloa chinensis); conditions: 320 g/ha
Method in brief: as §1

rice flat sedge = assay: Test Example 3: herbicidal effect by foliage application, Wagner pot (Table 18, symbol E); assay type: in vivo, rice flat sedge (Cyperus iria); conditions: 320 g/ha
Method in brief: as §1

southern crabgrass [2] = assay: Test Example 4: herbicidal effect by soil treatment (Table 19, symbol F); assay type: in vivo, southern crabgrass (Digitaria ciliaris); conditions: 320 g/ha
Method in brief: (§2)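 Applied as a water-diluted emulsion, the compound was sprayed onto soil covering newly sown seeds. Evaluation came three weeks after application, in a greenhouse held at 25° C. to 30° C.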

green foxtail [3] = assay: Test Example 4: herbicidal effect by soil treatment (Table 19, symbol G); assay type: in vivo, green foxtail (Setaria viridis); conditions: 320 g/ha
Method in brief: as §2

barnyard grass [4] = assay: Test Example 4: herbicidal effect by soil treatment (Table 19, symbol H); assay type: in vivo, barnyard grass (Echinochloa crus-galli); conditions: 320 g/ha
Method in brief: as §2

wild oat [5] = assay: Test Example 4: herbicidal effect by soil treatment (Table 19, symbol I); assay type: in vivo, wild oat (Avena fatua); conditions: 320 g/ha
Method in brief: as §2

blackgrass [6] = assay: Test Example 4: herbicidal effect by soil treatment (Table 19, symbol J); assay type: in vivo, blackgrass (Alopecurus myosuroides); conditions: 320 g/ha
Method in brief: as §2

Italian ryegrass [7] = assay: Test Example 4: herbicidal effect by soil treatment (Table 19, symbol K); assay type: in vivo, Italian ryegrass (Lolium multiflorum); conditions: 320 g/ha
Method in brief: as §2

windgrass [8] = assay: Test Example 4: herbicidal effect by soil treatment (Table 19, symbol L); assay type: in vivo, windgrass (Apera spica-venti); conditions: 320 g/ha
Method in brief: as §2

velvetleaf [9] = assay: Test Example 4: herbicidal effect by soil treatment (Table 19, symbol M); assay type: in vivo, velvetleaf (Abutilon theophrasti); conditions: 320 g/ha
Method in brief: as §2

redroot pigweed = assay: Test Example 4: herbicidal effect by soil treatment (Table 19, symbol N); assay type: in vivo, redroot pigweed (Amaranthus retroflexus); conditions: 320 g/ha
Method in brief: as §2

lambsquarters [10] = assay: Test Example 4: herbicidal effect by soil treatment (Table 19, symbol O); assay type: in vivo, lambsquarters (Chenopodium album); conditions: 320 g/ha
Method in brief: as §2

chickweed = assay: Test Example 4: herbicidal effect by soil treatment (Table 19, symbol P); assay type: in vivo, common chickweed (Stellaria media); conditions: 320 g/ha
Method in brief: as §2

persian speedwell [11] = assay: Test Example 4: herbicidal effect by soil treatment (Table 19, symbol R); assay type: in vivo, Persian speedwell (Veronica persica); conditions: 320 g/ha
Method in brief: as §2

southern crabgrass [12] = assay: Test Example 5: herbicidal effect by foliage application, plastic box (Table 20, symbol F); assay type: in vivo, southern crabgrass (Digitaria ciliaris); conditions: foliage application, 320 g/ha, 3 weeks after application
Method in brief: (§3)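 Sow seeds spot-wise in sterilized diluvial soil; cover with ~1.5 cm soil. Grow 14 days in greenhouse, 25° C. to 30° C. Spray foliage with emulsion diluted to predetermined amount. Rate effect after 3 weeks.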

green foxtail [13] = assay: Test Example 5: herbicidal effect by foliage application, plastic box (Table 20, symbol G); assay type: in vivo, green foxtail (Setaria viridis); conditions: foliage application, 320 g/ha, 3 weeks after application
Method in brief: as §3

barnyard grass [14] = assay: Test Example 5: herbicidal effect by foliage application, plastic box (Table 20, symbol H); assay type: in vivo, barnyard grass (Echinochloa crus-galli); conditions: foliage application, 320 g/ha, 3 weeks after application
Method in brief: as §3

wild oat [15] = assay: Test Example 5: herbicidal effect by foliage application, plastic box (Table 20, symbol I); assay type: in vivo, wild oat (Avena fatua); conditions: foliage application, 320 g/ha, 3 weeks after application
Method in brief: as §3

blackgrass [16] = assay: Test Example 5: herbicidal effect by foliage application, plastic box (Table 20, symbol J); assay type: in vivo, blackgrass (Alopecurus myosuroides); conditions: foliage application, 320 g/ha, 3 weeks after application
Method in brief: as §3

Italian ryegrass [17] = assay: Test Example 5: herbicidal effect by foliage application, plastic box (Table 20, symbol K); assay type: in vivo, Italian ryegrass (Lolium multiflorum); conditions: foliage application, 320 g/ha, 3 weeks after application
Method in brief: as §3

windgrass [18] = assay: Test Example 5: herbicidal effect by foliage application, plastic box (Table 20, symbol L); assay type: in vivo, windgrass (Apera spica-venti); conditions: foliage application, 320 g/ha, 3 weeks after application
Method in brief: as §3

velvetleaf [19] = assay: Test Example 5: herbicidal effect by foliage application, plastic box (Table 20, symbol M); assay type: in vivo, velvetleaf (Abutilon theophrasti); conditions: foliage application, 320 g/ha, 3 weeks after application
Method in brief: as §3

lambsquarters [20] = assay: Test Example 5: herbicidal effect by foliage application, plastic box (Table 20, symbol O); assay type: in vivo, lambsquarters (Chenopodium album); conditions: foliage application, 320 g/ha, 3 weeks after application
Method in brief: as §3

persian speedwell [21] = assay: Test Example 5: herbicidal effect by foliage application, plastic box (Table 20, symbol R); assay type: in vivo, Persian speedwell (Veronica persica); conditions: foliage application, 320 g/ha, 3 weeks after application
Method in brief: as §3

## C=Cc1ccc(-c2sc3ccc(F)cc3c2-c2c(OC(=O)CCC)c(C)nn(C)c2=O)cc1 [2-019]
Barnyard grass [1]
  herbicidal effect on H (barnyard grass), rating 0-5: 5 (Herbicidal rate of 90% or more (almost completely withered))
Chinese sprangletop
  herbicidal effect on D (Chinese sprangletop), rating 0-5: 3 (Herbicidal rate of 40% or more and less than 70%)
Rice flat sedge
  herbicidal effect on E (rice flat sedge), rating 0-5: 4 (Herbicidal rate of 70% or more and less than 90%)
Southern crabgrass [2]
  herbicidal effect rating, F: southern crabgrass: 0 (Herbicidal rate of 5% or less (almost no effect))
Green foxtail [3]
  herbicidal effect rating, G: green foxtail: 2 (Herbicidal rate of 20% or more and less than 40%)
Barnyard grass [4]
  herbicidal effect rating, H: barnyard grass: 0 (Herbicidal rate of 5% or less (almost no effect))
Wild oat [5]
  herbicidal effect rating, I: wild oat: 0 (Herbicidal rate of 5% or less (almost no effect))
Blackgrass [6]
  herbicidal effect rating, J: blackgrass: 0 (Herbicidal rate of 5% or less (almost no effect))
Italian ryegrass [7]
  herbicidal effect rating, K: Italian ryegrass: 5 (Herbicidal rate of 90% or more (almost completely withered))
Windgrass [8]
  herbicidal effect rating, L: windgrass: 1 (Herbicidal rate of 5% or more and less than 20%)
Velvetleaf [9]
  herbicidal effect rating, M: velvetleaf: 0 (Herbicidal rate of 5% or less (almost no effect))
Redroot pigweed
  herbicidal effect rating, N: redroot pigweed: 5 (Herbicidal rate of 90% or more (almost completely withered))
Lambsquarters [10]
  herbicidal effect rating, O: lambsquarters: 3 (Herbicidal rate of 40% or more and less than 70%)
chickweed
  herbicidal effect rating, P: chickweed: 4 (Herbicidal rate of 70% or more and less than 90%)
Persian speedwell [11]
  herbicidal effect rating, R: persian speedwell: 5 (Herbicidal rate of 90% or more (almost completely withered))
Southern crabgrass [12]
  effect on southern crabgrass (F): 4 (Herbicidal rate of 70% or more and less than 90%)
Green foxtail [13]
  effect on green foxtail (G): 5 (Herbicidal rate of 90% or more (almost completely withered))
Barnyard grass [14]
  effect on barnyard grass (H): 5 (Herbicidal rate of 90% or more (almost completely withered))
Wild oat [15]
  effect on wild oat (I): 4 (Herbicidal rate of 70% or more and less than 90%)
Blackgrass [16]
  effect on blackgrass (J): 0 (Herbicidal rate of 5% or less (almost no effect))
Italian ryegrass [17]
  effect on Italian ryegrass (K): 3 (Herbicidal rate of 40% or more and less than 70%)
Windgrass [18]
  effect on windgrass (L): 4 (Herbicidal rate of 70% or more and less than 90%)
Velvetleaf [19]
  effect on velvetleaf (M): 5 (Herbicidal rate of 90% or more (almost completely withered))
Lambsquarters [20]
  effect on lambsquarters (O): 5 (Herbicidal rate of 90% or more (almost completely withered))
Persian speedwell [21]
  effect on persian speedwell (R): 5 (Herbicidal rate of 90% or more (almost completely withered))
